Data as given in the NIST ThermoML archive (doi:10.1016/j.fluid.2014.04.015).
± gives the expanded uncertainty stated by the source.

Conditions: Liquid, Closed cell (Static) method

Row | SMILES | vapor or sublimation pressure (283.15 K) [kPa] | vapor or sublimation pressure (293.15 K) [kPa] | vapor or sublimation pressure (303.15 K) [kPa] | vapor or sublimation pressure (313.15 K) [kPa] | vapor or sublimation pressure (323.15 K) [kPa]
1 | CC(F)F [1,1-difluoroethane] | 374.8 ± 7 | 515.2 ± 7 | 692 ± 7.1 | 911.1 ± 7.1 | 1179.4 ± 7.2
2 | C=C(F)C(F)(F)F [2,3,3,3-tetrafluoro-1-propene] | 436.5 ± 7.1 | 591 ± 7.2 | 780.5 ± 7.4 | 1015.6 ± 7.6 | 1300.7 ± 7.9
